Structures can show the parent of a compound that is named as a salt. Where two headings read alike, the source gives them in different places.
Columns and labels:
[1] = target: T1, human 5-hydroxytryptamine2C (h5HT2C) receptor (Homo sapiens, UniProt P28335); assay: 5HT2C Receptor Binding Test Procedure ([125I] DOI displacement, membranes of transfected CHO cells)
T1 construct: expressed in transfected cells; host or cells: CHO (Chinese Hamster Ovary) cells; membrane preparation
T1 sequence (P28335 33-458): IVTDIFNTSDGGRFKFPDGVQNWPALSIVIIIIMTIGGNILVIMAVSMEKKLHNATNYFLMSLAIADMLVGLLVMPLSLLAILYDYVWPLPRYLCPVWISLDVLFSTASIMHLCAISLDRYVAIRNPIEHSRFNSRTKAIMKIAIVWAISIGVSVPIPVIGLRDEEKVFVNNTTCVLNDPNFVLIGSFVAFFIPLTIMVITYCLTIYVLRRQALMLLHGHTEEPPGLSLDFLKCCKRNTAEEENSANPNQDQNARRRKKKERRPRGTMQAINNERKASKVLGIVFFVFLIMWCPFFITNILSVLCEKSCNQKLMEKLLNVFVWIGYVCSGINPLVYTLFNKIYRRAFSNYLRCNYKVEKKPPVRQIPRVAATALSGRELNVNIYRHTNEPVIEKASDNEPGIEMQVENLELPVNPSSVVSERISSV

[2] = target: T2, human 5-HT2C receptor (Homo sapiens, UniProt P28335); assay: Stimulation of [3H] Inositol Monophosphate Production by 5HT2C Agonists in transfected CHO cells; conditions: read-out: 5HT2C Stimulation of IP3 % Emax (5HT, 100%)
T2 sequence (P28335 33-458): T1 sequence (P28335 33-458)
Procedure: One (1) ml of maintenance medium containing 1 μCi/ml myo-[^3H] inositol was added to each well. After 48 hours labeling, the cells were washed once with 0.5 ml DMEM containing 25 mM HEPES and 10 mM LiCl, then preincubated with the medium for 30 min (antagonists were included in this period if tested). At the end of the preincubation, the medium was removed, the cells were then incubated with test compounds (in presence of antagonists if needed) for 30 min. The reaction was terminated by removal of the incubation solution and addition of 0.5 ml ice-cold 5% PCA, followed by 15 to 30 min incubation on ice. 200 μl of 0.5 M Tes/1.5 M K2CO3 was added to each well to neutralize to pH 7, and plates were left on ice for another 15 to 30 min to precipitate all salts. The liquid and solid phases were separated by centrifugation.
A portion (350 μl) of the upper aqueous phase was applied to Dowex AG-1X8 (formate form, 100-200 mesh) columns. The columns were then washed stepwise with 10 ml of water and 10 ml of 25 mM ammonium formate to remove free myo-[^3H]inositol and deacylated phosphoinositol, respectively. Finally 10 ml of 0.2 M ammonium formate solution was applied to the columns to elute [^3H] inositol monophosphate ([^3H] IP1) directly into scintillation vials. Of this eluate, 1 ml was used to determine radioactivity by scintillation counting. […]

c1cc2c3c(c1)C1CCCCCCC1N3CCNC2 (stereo not drawn) [Example 2, 1,2,3,4,7b,8,9,10,11,12,13,13a-Dodecahydrocycloocta[b][1.4]diazepino[6,7,1-hi]indole]
Ki [1]: 65 nM | melting point: 58 to 63 °C

CSc1ccc2c(c1)C(N1CCN(C)CC1)Cc1ccccc1S2 (stereo not drawn) [Methiothepin]
Ki ([1]; reference compounds, [125I] DOI binding, h5HT2C CHO membranes, read-out: Ki value and 95% confidence interval): 4.6 nM

COc1cc(CC(C)N)c(OC)cc1I (stereo not drawn) [[^125I] DOI]
Kd ([1]; read-out: dissociation constant, KD of [125I] DOI at the human serotonin 5HT2C receptor, saturation binding with increasing concentrations of [125I] DOI): 0.4 nM

c1cc2c3c(c1)c1c(n3CCNC2)CCCCCC1 (as salt: hydrochloride) [Example 1, 1,2,3,4,8,9,10,11,12,13-Decahydrocycloocta[b][1,4]diazepino[6,7,1-hi]indole]
melting point: 316 to 318 °C

c1cc2c3c(c1)c1c(n3CCNC2)CCCCCC1 [Example 1, 1,2,3,4,8,9,10,11,12,13-Decahydrocycloocta[b][1,4]diazepino[6,7,1-hi]indole]
Emax [2]: 120%

From patent US7271162B2, “Cycloocta[b][1,4]diazepino[6,7,1-hi]indoles and derivatives” (Wyeth, priority 2000, dated 2007)
